# Measured values from PubChem BioAssay AID1996.
# Details: buffer; pH 7.4; 200.0 µM
row,Compound,solubility kinetic [mg/mL]
1,O=C(COC(=O)CNC(=O)c1ccc(Cl)cc1)Nc1ccc(Cl)cn1,0.0032
2,Cc1cc(OC(F)F)ccc1NC(=S)NC1CCCC1,> 0.0451
3,CC1CN(CC(=O)NCc2ccc(Cl)cc2)CC(C)O1 (stereo not given),> 0.0445
4,CC1(C)CC(=O)C2=C(C1)Nc1ccccc1NC2c1cccc(F)c1 (stereo not given),> 0.0505
5,O=C(c1cc2ccccc2o1)N1CCCC1,> 0.0323
6,CCC(C(=O)NCc1ccccc1OC)c1ccccc1 (stereo not given),0.0326
7,CC(=O)Nc1ccc(NC(=O)COC(=O)c2cc(S(=O)(=O)N3CCCC3)ccc2O)cc1,> 0.0692
8,Cc1ccc(CC2C(=O)N(c3cc(Cl)ccn3)C(=O)C2C)cc1 (stereo not given),> 0.0493
9,Cc1cc(NC(=O)COc2ccc3ccccc3c2Br)no1,0.0144
10,CC1=CC(C)(C)N=C(Nc2nc(C)c3cc(C)cc(C)c3n2)N1,> 0.0464
11,Cn1c(N)c(C(=O)COC(=O)CNC(=O)c2ccccc2F)c(=O)n(C)c1=O,> 0.0589
12,CC(C)CNC(=O)COC(=O)c1ccc(F)cc1Cl,> 0.0432
13,Fc1ccc(C(CCNCc2cccs2)c2ccco2)cc1 (stereo not given),0.0342
14,Cc1ccc(COC(=O)c2ccc3ccccc3n2)cc1,0.0076
15,N#Cc1c(F)cccc1N1CCC(C#N)CC1,> 0.0344
16,Cc1cc(C(=O)NNC(=O)C(CCC(N)=O)NS(=O)(=O)c2ccc(Cl)cc2)c(C)o1 (stereo not given),> 0.0685
17,CC1=CC(C)(C)NC(=S)N1c1cc(C)cc(C)c1,0.0087
18,CCCCN(C)C1CCN(C(=S)Nc2ccc(OC)cc2)CC1,> 0.0503
19,COc1cccc(CN2CCc3[nH]c(=S)[nH]c(=O)c3C2)c1,> 0.0455
20,O=C(O)/C=C\C(=O)O.c1ccc(Sc2ccccc2CN2CCCC2)cc1,> 0.0578
21,CC(C)C[C@H](NC(=O)NC1CCCc2ccccc21)C(=O)O (stereo not given in full),> 0.0457
22,CCOc1ccccc1C(=O)NCC(=O)OCC(=O)c1c(N)n(C)c(=O)n(C)c1=O,0.0041
23,CN(C(=O)CCn1c(=S)oc2ccccc21)C1CCCCC1,> 0.0478
24,COc1cccc(NC(=O)COC(=O)CCC2CCCC2)c1,> 0.0458

row,Compound,solubility kinetic [mg/mL]
1,Cc1onc(-c2ccccc2)c1C(=O)NCC(O)c1ccccc1 (stereo not given),> 0.0484
2,CN(CC(=O)NCc1cccnc1)S(=O)(=O)c1ccccc1,> 0.0479
3,O=C(O)CCC(=O)Nc1ccc(Oc2ncnc3cc(Cl)ccc23)nc1,> 0.0559
4,O=C(O)C1Cc2ccccc2CN1C(=O)c1ccco1 (stereo not given),0.0307
5,Cc1ccc(-c2nc3ncccc3o2)cc1NC(=O)C(C)C,0.0253
6,CC1(C)CC(=O)C(=CN2CCOCC2)C(=O)C1,> 0.0356
7,CCN(C(=O)COC(=O)CCNS(=O)(=O)c1ccccc1F)c1c(N)n(Cc2ccccc2)c(=O)[nH]c1=O,> 0.0821
8,Cc1ccc(NC(=O)O/N=C/c2cccc([N+](=O)[O-])c2)cc1,0.0093
9,COc1ccc(NC(=O)C2C3C=CC(O3)C2C(=O)O)cc1 (stereo not given),> 0.0434
10,CCCOc1ccccc1/C=C1\SC(N)=NC1=O,0.0021
11,Cc1cccc(C2=N/C(=C\c3cccs3)C(=O)O2)c1,0.004
12,Nc1c(Cl)ncnc1NCCc1ccc(O)cc1,0.0371
13,C/C(N)=C(/C#N)C(=O)COC(=O)c1cc2c(s1)CCCC2,0.0022
14,CCOC(=O)C1CCN(C(C)C(=O)c2c[nH]c3ccccc23)CC1 (stereo not given),> 0.0493
15,CCOc1ccc(Nc2nc3c(C)cccc3cc2C#N)cc1,< 0.0002
16,CNC(=O)CSc1nnc(-c2ccco2)n1-c1cccc(C)c1C,> 0.0514
17,O=C(NC1CCCCC1)c1cccnc1Sc1ccccc1,0.0112
18,Cc1ccc2c(CN(C)Cc3ccccc3)cc(=O)oc2c1C,0.0017
19,Oc1ccccc1-c1cncn1Cc1ccccc1,0.0114
20,COc1cccc(-c2onc3ccc(C(C)=O)cc23)c1,0.0029
21,Brc1ccc(COc2cccc3cccnc23)cc1,0.0023
22,O=S(=O)(Oc1ccccc1)c1cccnc1,0.0294
23,COc1ccc(OCc2csc(N)n2)cc1,> 0.0354
24,Cc1cc(F)ccc1NC(=O)Cn1c(C)csc1=O,> 0.042

row,Compound,solubility kinetic [mg/mL]
1,O=S(=O)(Nc1cccc2ccccc12)c1ccccc1F,0.0015
2,CCN1CC(CN(C)Cc2nc(-c3ccc(Cl)cc3)no2)CC1=O (stereo not given),> 0.0523
3,Cc1ccc(OCc2cnc(Cl)s2)c(C)c1,< 0.0005
4,O=C(c1cccc([N+](=O)[O-])c1)N1CCCC(C(=O)N2CCCCCC2)C1 (stereo not given),> 0.0539
5,O=C(c1c[nH]c2ccccc12)N1CCOCC1,0.0263
6,c1ccc(COc2ccccc2CNC2CCCC2)cc1,0.0385
7,Cc1ccc(NC(=O)N(CCC(=O)O)Cc2ccccc2)cc1,> 0.0469
8,O=C(/C=C/c1ccco1)NCC1OCCc2ccccc21 (stereo not given),0.0415
9,Cc1ccccc1NC(=O)COc1cccc2c1CCNC2=O,0.0461
10,O=C1NCCCCC1NS(=O)(=O)c1ccccc1 (stereo not given),> 0.0402
11,Cc1ccc(NC(=O)NCCCN2CCCC2=O)c(C)c1,> 0.0434
12,NC(=O)COC(=O)CSc1ccc2ccccc2c1,> 0.0413
13,CCOC(=O)C1=C(C)NC(C)=C(C(=O)OCC)C1C(=O)OCC(=O)NCc1ccc(F)cc1,> 0.0694
14,O=C(Nc1ccccc1F)N1CCc2ccccc2C1,> 0.0405
15,NC(=O)C1CCN(C(=O)CCC(=O)c2ccc(F)cc2)CC1,> 0.046
16,COC(=O)c1cc2ccccc2n1S(=O)(=O)c1ccccc1,< 0.0007
17,CC(C)NCC(O)COCCOc1ccc(Cl)cc1.Cl (stereo not given),> 0.0486
18,CC[C@H](C)[C@H](NC(N)=O)C(=O)NCCc1ccc(OC)cc1,> 0.0461
19,CC(C)=CCN1CCN(Cc2cccc3c2OCO3)CC1CCO (stereo not given),0.0365
20,CN(C)/C(=N\S(=O)(=O)c1ccc(Br)cc1)c1ccccc1,0.0502
21,CCn1c(-c2ccc[nH]c2=O)nc2ccccc21,> 0.0359
22,CCCC(=O)Nc1ccc(C(=O)COC(=O)C2CC2C)cc1 (stereo not given),0.014
23,O=C1CC(N2CCN(c3ccc(F)cc3)CC2)C(=O)N1c1ccccc1 (stereo not given),0.0494
24,O=C(O)c1csc(-c2cccc(Cl)c2)n1,0.0339

row,Compound,solubility kinetic [mg/mL]
1,O=C(COC(=O)c1cc(S(=O)(=O)N2CCOCC2)ccc1F)c1ccccc1,> 0.0611
2,CN(C)c1ccc(CNc2ncnc3sccc23)cc1,0.0297
3,CCOC(=O)c1ccc(Nc2cc(C)nc(-c3ccccc3)n2)cc1,< 0.0002
4,O=C(COc1ccccc1Cl)N1CCc2ccccc21,0.0011
5,COc1cc(C(=O)Nc2ccn(C)n2)ccc1OC(F)F,> 0.0446
6,O=S(=O)(NCCc1ccccn1)c1ccc(-c2ccccn2)s1,0.0306
7,Cc1c(Cc2ccc3c(c2)OCO3)sc(NC(=O)C2CC2)c1C(N)=O,0.0018
8,CCN(Cc1ccccc1)C(=O)CS(=O)(=O)c1ccccc1,> 0.0476
9,O=C(O)c1ccc2c(c1)C(=O)N(c1nccs1)C2=O,> 0.0411
10,CCn1c(=O)c(C(=O)NC(C)c2ccccc2)c(O)c2ccccc21 (stereo not given),< 0.0004
11,CCC(C(=O)Nc1cccnc1)c1ccccc1 (stereo not given),0.0343
12,O=S1(=O)CCN(C(CCO)c2cccc(C(F)(F)F)c2)CC1 (stereo not given),> 0.0506
13,N#C/C(=C\c1ccc(Cl)cc1)C(=O)NC1CC1,0.005
14,Cc1cc(OC(=O)N(C)C)nc(SCc2c(Cl)cccc2Cl)n1,0.0065
15,Cl.Oc1cccc(Nc2c3ccccc3nc3ccccc23)c1,0.0007
16,Cc1ccc(NCCC(=O)c2cccs2)cc1,0.0179
17,COc1ccc(-c2nc3ccccc3c(=O)n2O)cc1,0.0379
18,COc1ccc(CCNC2CC(=O)N(C3CCCCC3)C2=O)cc1OC (stereo not given),0.0464
19,COc1cccc(C(=O)Nc2ccc3c(C)cc(=O)oc3c2)c1,< 0.0007
20,COc1ccccc1C(=O)Nc1ccc2c(c1)n(C)c(=O)n2C,0.0436
21,CC(O)C(NC=C1C(=O)OC(C)(C)OC1=O)C(=O)O (stereo not given),0.0394
22,CN(C(=O)COC(=O)C1CCN(S(=O)(=O)c2ccc(Cl)cc2)CC1)C1CCS(=O)(=O)C1 (stereo not given),0.018
23,O=C(N/N=C/c1cccnc1)c1ccco1,> 0.0323
24,CN(Cc1ccccc1)C(=O)COC(=O)/C=C/c1ccco1,> 0.0449

row,Compound,solubility kinetic [mg/mL]
1,CCN(CC)S(=O)(=O)c1ccc(N)cc1,> 0.0342
2,Cc1ccc(S(=O)(=O)n2c(C)nc3ccccc32)cc1,0.0022
3,CC(C)(C)NC(=S)NCC1CC1,> 0.0279
4,COc1ccccc1CN(C)C(=O)COC(=O)c1c(C)noc1C,> 0.0499
5,COC(=O)c1c(O)cc(=O)n2c1CCCCC2,0.0333
6,Cc1ccc(NC(=O)CCCc2ccccc2)nc1,0.0366
7,NC(=O)CC[C@H](NC(=O)c1ccc(F)cc1)C(=O)N1CCN(Cc2ccc3c(c2)OCO3)CC1,> 0.0706
8,O=C(CC(c1ccccc1)c1ccccc1)Nc1ccc(C(=O)O)cc1,> 0.0518
9,Cc1c(C)n(CCN(C)C)c2ncnc(NCc3ccccc3)c12,0.0429
10,O=C(Nc1cc(Cl)ccc1Cl)C1CC(=O)N(c2ccccc2)C1 (stereo not given),0.0017
11,COc1cc(/C=C/[N+](=O)[O-])ccc1OC(=O)c1cccnc1,0.0037
12,Cc1cc2nc3c(nc2cc1C)C(O)=C3O,0.0276
13,CCOC(=O)N1CCN(Cc2nc3cc([N+](=O)[O-])ccc3n2C)CC1,0.0507
14,CC(=O)Nc1ccc(-c2csc(NC(=O)CCNC(=O)c3ccco3)n2)cc1,0.0117
15,COCCNC(=O)c1cccc(NC(=O)C2=C(C)OCCS2)c1,> 0.0505
16,CC(=O)C(Sc1nccc(-c2cccs2)n1)C(C)=O,0.0405
17,CC(C)c1ccc(NC(=S)NNC(=O)c2cccnc2)cc1,> 0.0472
18,COc1ccc2oc(=O)c(C(=O)NCc3ccccc3)cc2c1,0.0007
19,CCN(CC)C1=C(Cl)C(=O)C(Cl)C12OCCO2 (stereo not given),> 0.042
20,Cc1cc(C)cc(NC(=O)c2cccnc2)c1,> 0.0339
21,N#CCSc1ccccc1NC(=O)CN1C(=O)C(=O)N(Cc2ccccc2)C1=O,0.0433
22,Oc1ccc(-c2nccc(-c3ccccn3)n2)cc1,0.0126
23,O=C(CNC(=O)c1ccco1)Nc1ccc(F)cc1,0.037
24,COc1ccccc1NC(=O)COC(=O)c1ccc([N+](=O)[O-])s1,0.0051
